# Measured values from patent publication EP0681475B1 (priority 1993, dated 1994).
# Read-outs that look alike come from different tables or passages of the source.
# Columns and labels:
# [1] = tested on: Vascular smooth muscle (BO54) cells; assay type: cell-based, baboon
# [2] = tested on: vascular smooth muscle cells; assay type: in vivo, pig
# [3] = tested on: Vascular smooth muscle (BO54) cells; assay type: cell-based, baboon; remark: listed apart in the source
# [4] = tested on: pig femoral arteries; conditions: in vivo
# [5] = tested on: Vascular smooth muscle cells; assay: In vitro recovery of migration after clearance of the agent; assay type: cell-based; conditions: cells regenerate enough polymerized actin
# [6] = tested on: Vascular smooth muscle cells
# [7] = tested on: Vascular smooth muscle cells (BO54); assay: Scratch-migration assay; assay type: cell-based, baboon; conditions: 0.1 µg/ml
# Method: Scratch assays to determine the extent of smooth muscle cell migration inhibition by cytochalasin B were performed in accordance with the following protocol: Vascular smooth muscle cells (BO54) were derived from explants of baboon aortic smooth muscle, as described in Example 2. The cells were grown in flat bottom, six well tissue culture plates, which hold about 5 ml of medium. The vascular smooth muscle cells were plated at 200,000 cells/well and placed at 37°C in a humidified 5% CO2 incubator for 18 hours. The wells were then scratched with a sterile portion of a single edge razor blade that was held by clamp or pliers and was brought aseptically into contact with the bottom of the well at a 90° angle.The cells from a small area along the scratch were removed by a sterile cotton tipped applicator while the blade was in contact with the bottom of the well.
# After incubation, the presence of cells in the "scratched" area is indicative of cell migration across the scratch line.
# Briefly, a stock solution of cytochalasin B (Sigma Chemical Co.) in dimethyl sulfoxide (DMSO) at 1 mg/ml was prepared. Test dilutions of cytochalasin B or control medium were added. […]
# The migration results are expressed as "Grade in the Cleared Area of the Well / Grade in an Undisturbed Region of the Well." The toxicity values represent a grade for all cells in each well.
Compound,minimum effective dose (MED) [1] [ng/mL],"BRDU labeling grade ([2]; pig, in vivo)",minimum effective dose (MED) [3] [ng/mL],effect on luminal area in dose response study [4],incidence of mural microthrombi [4],lumen area in the test region compared to the normal control segment of the same artery [4],luminal area compared to arteries treated with other test agents or controls [4],time to resume migration after cells clear the agent [5] [h],"BRDU labeling grade ([2]; 24 hours following balloon trauma, pretrauma baseline grade 1)","Morphological cytotoxicity grade ([6]; 0.01ug, Continuous 24 hrs (first listing, 24 hr pulse series))","Morphological cytotoxicity grade ([6]; 0.01ug, continuous 24 hrs (second listing, long term continuous series))","Morphological cytotoxicity grade ([6]; 0.1 ug, Continuous 24 hrs (first listing, 24 hr pulse series))","Morphological cytotoxicity grade ([6]; 0.1 ug, continuous 24 hrs (second listing, long term continuous series))","cytotoxicity grade ([6]; 1 µg/ml, anti-migration/contraction effective dose, 1 = minimal)","Morphological cytotoxicity grade ([6]; 1 ug, Continuous 24 hrs (first listing, 24 hr pulse series))","Morphological cytotoxicity grade ([6]; 1 ug, continuous 24 hrs (second listing, long term continuous series))",migration grade following removal of the therapeutic agent ([7]; even after 10 days of continuous exposure),migration grade into the cleared area adjacent to the scratch ([7]; exposure)
CN[C@@H]1C[C@H]2O[C@@](C)([C@@H]1OC)n1c3ccccc3c3c4c(c5c6ccccc6n2c5c31)C(=O)NC4 [staurosporin],1,1 (key: 1 = ≤ 1/high power field(HPF); 2 = 2 to 5/HPF; 3 = > 5 to ≤ 10/HPF; 4 = > 10/HPF),1,–,–,–,–,–,–,–,–,–,–,–,–,–,–,–
cytochalasin B,–,–,–,significant threshold effect,decreased,approximately two times as large,larger luminal area,≤ 24,1 (1 = ≤ 1/high power field(HPF)),0,0,1,0,1,3,3,+3 to +4,+1 to +2
